Assay [1] deals with Helicobacter pylori urease (Helicobacter pylori, UniProt P69996). The experiment in a line: Urease activity inhibition test (13C-urea, 13C-NMR), Helicobacter pylori urease. It is filed as biochemical. Here is the method:
Using ^13C-urea as a substrate, the amount of urea, which is eliminated due to the urease enzyme reaction, was measured with a lapse of time by means of ^13C-NMR. On the basis of an elimination rate (M/sec) of ^13C-urea in the absence of the urease inhibitor sample, the case where the elimination rate in the presence of the sample is reduced to half was calculated as IC50 of the sample.
(Preparation of sample) In a NMR tube having a diameter of 5 mm, Helicobacter pylori urease (manufactured by OTSUKA PHARMACEUTICAL CO., 1.6 units) dissolved in 500 μof a mixed solvent (pH 7) of 400 μl of 0.1M phosphate buffer (pH 7) and 100 μl of DMSO was added and each test compound (urease inhibitor sample) dissolved in 100 μl of ethanol was added, followed by standing at 20° C. for 30 minutes and further standing on an ice bath for 10 minutes. […]
Each sample was inserted into a probe and the enzyme reaction was conducted at the reaction temperature (temperature of the probe) of 20° C. and the measurement was conducted every 20 seconds after 1 to 4 minutes have passed since the beginning of the reaction, while the measurement was conducted every one minute after 4 or more minutes have passed, using a ^13C-NMR apparatus. Consequently, an elimination rate (M/sec) of a signal (165 ppm) of ^13C-urea as the substrate was determined.

Assay [2] has as its target T1, jack bean urease (Canavalia ensiformis, UniProt P07374).
T1 construct: purchased
The experiment in a line: Urease activity inhibition test (13C-urea, 13C-NMR), jack bean urease. It is filed as biochemical. On the procedure: Using ^13C-urea as a substrate, the amount of urea, which is eliminated due to the urease enzyme reaction, was measured with a lapse of time by means of ^13C-NMR. On the basis of an elimination rate (M/sec) of ^13C-urea in the absence of the urease inhibitor sample, the case where the elimination rate in the presence of the sample is reduced to half was calculated as IC50 of the sample. […]
Each sample was inserted into a probe and the enzyme reaction was conducted at the reaction temperature (temperature of the probe) of 20° C. and the measurement was conducted every 20 seconds after 1 to 4 minutes have passed since the beginning of the reaction, while the measurement was conducted every one minute after 4 or more minutes have passed, using a ^13C-NMR apparatus. Consequently, an elimination rate (M/sec) of a signal (165 ppm) of ^13C-urea as the substrate was determined. […]
Using the respective compounds obtained in Reference Examples 2 to 5 as the test compound, the same test (using the jack bean urease) was repeated and IC50 of each test compounds was determined, thus calculating a relative urease inhibitory activity value relative to a standard (1) for the same value of BIT. […]

For assay [3], the system named is Helicobacter pylori ATCC 43504. The experiment in a line: Anti-Helicobacter pylori activity test (dilution method). It is filed as cell-based. As to conditions: H. pylori ATCC 43504, 3 days culture, OD660nm; compared with metronidazole (MN), FIG. 3. Here is the method: An anti-Helicobacter pylori activity test of the compound as an active ingredient of the present invention was conducted in the following procedure using a dilution method. Helicobacter pylori ATCC 43504 strains were innoculated in a medium in petri dish (Brucella agar (BECTON […]), containing 7% FBS) and then cultured in a mixed carbonic acid gas-nitrogen gas culture medium (10% CO2, 5% O2, 85% N2, 37° C.) for 2 days. The strains were recovered, cultured similarly in a liquid medium using a Brucella broth (BECTON […]) for one day and then diluted with the same medium to control […] to 0.1. The test compound was dissolved in 50% ethanol-saline to prepare a 1 mg/ml solution and the solution was 1- to 2048-fold diluted by 12 steps with the same medium to prepare dilution series. In each well of cell culture plate (20 μl/well), each step wisely diluted solution (20 μl) of the test compound was charged and a Brucella medium (containing 7% FBS) (160 μl) was added, and then a pylori strain solution (20 μl) was finally added.

Molecules are shown by their SMILES.

T1 sequence (P07374 whole entry, looked up): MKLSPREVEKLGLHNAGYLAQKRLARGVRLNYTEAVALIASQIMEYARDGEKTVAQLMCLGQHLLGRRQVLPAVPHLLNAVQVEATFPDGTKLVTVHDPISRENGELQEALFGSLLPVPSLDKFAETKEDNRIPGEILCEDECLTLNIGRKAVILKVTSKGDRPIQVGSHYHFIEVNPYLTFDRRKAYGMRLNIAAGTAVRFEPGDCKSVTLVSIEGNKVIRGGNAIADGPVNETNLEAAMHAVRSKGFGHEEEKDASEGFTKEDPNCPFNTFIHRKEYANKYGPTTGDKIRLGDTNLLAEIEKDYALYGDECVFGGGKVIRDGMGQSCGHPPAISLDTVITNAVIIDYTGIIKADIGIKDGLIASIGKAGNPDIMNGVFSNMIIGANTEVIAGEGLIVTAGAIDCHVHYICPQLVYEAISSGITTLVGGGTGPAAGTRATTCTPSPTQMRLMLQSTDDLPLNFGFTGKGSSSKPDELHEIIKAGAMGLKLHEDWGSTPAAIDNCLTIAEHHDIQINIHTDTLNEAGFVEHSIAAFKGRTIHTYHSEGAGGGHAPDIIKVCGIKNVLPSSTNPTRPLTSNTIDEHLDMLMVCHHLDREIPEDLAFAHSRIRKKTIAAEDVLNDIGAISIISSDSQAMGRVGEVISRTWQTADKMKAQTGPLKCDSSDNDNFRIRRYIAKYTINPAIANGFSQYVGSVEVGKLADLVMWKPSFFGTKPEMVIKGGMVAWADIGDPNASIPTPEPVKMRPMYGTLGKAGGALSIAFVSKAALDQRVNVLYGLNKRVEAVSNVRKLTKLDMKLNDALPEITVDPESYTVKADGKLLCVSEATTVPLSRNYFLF
Chain of Helicobacter pylori urease (P14916 whole entry): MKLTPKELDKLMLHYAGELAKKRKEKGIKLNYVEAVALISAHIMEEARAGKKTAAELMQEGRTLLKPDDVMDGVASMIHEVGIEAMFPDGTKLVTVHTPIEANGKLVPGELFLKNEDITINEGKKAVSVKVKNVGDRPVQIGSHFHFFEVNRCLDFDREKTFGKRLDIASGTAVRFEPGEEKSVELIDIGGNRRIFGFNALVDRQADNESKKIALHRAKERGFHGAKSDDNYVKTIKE
Chain of Helicobacter pylori urease (P69996 whole entry): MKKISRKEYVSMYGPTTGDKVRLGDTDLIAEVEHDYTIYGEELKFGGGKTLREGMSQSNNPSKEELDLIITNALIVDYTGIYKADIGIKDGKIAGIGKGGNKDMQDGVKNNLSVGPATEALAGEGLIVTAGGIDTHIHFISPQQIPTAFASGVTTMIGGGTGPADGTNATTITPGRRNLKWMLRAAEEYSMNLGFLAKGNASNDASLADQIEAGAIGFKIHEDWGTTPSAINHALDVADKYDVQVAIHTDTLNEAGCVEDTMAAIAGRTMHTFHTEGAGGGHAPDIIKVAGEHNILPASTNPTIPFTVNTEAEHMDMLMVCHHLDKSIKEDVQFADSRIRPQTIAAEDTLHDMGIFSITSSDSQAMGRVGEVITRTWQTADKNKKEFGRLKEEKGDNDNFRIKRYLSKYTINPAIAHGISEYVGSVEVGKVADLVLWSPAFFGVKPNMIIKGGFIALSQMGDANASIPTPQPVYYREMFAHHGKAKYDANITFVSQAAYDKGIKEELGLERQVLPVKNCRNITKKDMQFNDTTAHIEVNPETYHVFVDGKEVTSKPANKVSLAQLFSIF

`O=c1[nH]sc2ccccc12` [BIT, 1,2-benzoisothiazol-3 (2H)-one]: the results for the IC50 in assay [1] and in assay [2] were 55 µM and 132 µM, respectively. The “anti-Helicobacter pylori activity (eradication rate)” value in assay [3] was “stronger than that of MN”.

Source of the values: US20040058952A1, “Urease inhibitors” (Otsuka Pharmaceutical Co., Ltd., priority 2000, published 2004).
